Measurements reported in BigSolDB 2.1.

N[C@H](Cc1c[nH]c2ccccc12)C(=O)O
solubility (mole fraction)
Conditions | 283.15 K | 288.15 K | 293.15 K | 298.15 K | 303.15 K | 308.15 K | 313.15 K | 318.15 K | 323.15 K | 328.15 K
in DMSO | – | – | 0.00359 | 0.00381 | 0.00464 | 0.00551 | 0.00596 | 0.00705 | 0.00778 | 0.00911
in acetonitrile | 5.75e-05 | 6.84e-05 | 8.14e-05 | 0.000107 | 0.000128 | 0.00015 | 0.000206 | 0.000241 | 0.000307 | 0.000372
in ethyl acetate | 0.000238 | 0.000302 | 0.000376 | 0.000476 | 0.000541 | 0.000699 | 0.000837 | 0.00115 | 0.00141 | 0.0018
in ethylene glycol | 0.00148 | 0.00167 | 0.00246 | 0.00318 | 0.00437 | 0.00547 | 0.00804 | 0.00999 | 0.0125 | 0.0161
in n-butanol | 1.97e-05 | 2.21e-05 | 2.99e-05 | 3.52e-05 | 4.81e-05 | 5.68e-05 | 7.9e-05 | 9.26e-05 | 0.00012 | 0.000137
in n-octanol | 1.36e-05 | 1.53e-05 | 1.88e-05 | 2.49e-05 | 2.8e-05 | 3.61e-05 | 4.02e-05 | 4.83e-05 | 5.87e-05 | 6.53e-05
in n-propanol | 4.51e-05 | 6.23e-05 | 7.27e-05 | 8.69e-05 | 0.000111 | 0.000127 | 0.000157 | 0.000177 | 0.000219 | 0.000244
